Counter-ions that a name gives are not always drawn.
Test: rotating disk dissolution test
Assay type: physicochemical
Settings: 300 rpm; for Rotating Disk Dissolution Rate (RDDR): crystalline salt, 20 mg pellet, about 500 ml dissolution medium at 25° C., slope normalized to initial exposed surface area
Excerpt: In a preferred aspect, the salts of the present invention are crystalline salts. A crystalline salt of the invention dissolves slower than the crystalline maleate salt of the same compound under standard conditions of temperature, pressure, and fluid flow. Preferably, the dissolution rate of a crystalline salt of the invention, when measured by a rotating disk dissolution test, is less than 50% of that of a crystalline maleate salt of the same compound. More preferably, the dissolution rate is less than 25% of that of a crystalline maleate salt of the same compound. More preferably, the dissolution rate is less than 10% of that of a crystalline maleate salt of the same compound. For example, under the standard conditions in a rotating disc dissolution test, the maleate salt crystals dissolved at a rotating disc dissolution rate (RDDR) of 0.44 mmole sec^−1 cm^−2, whereas the xinafoate salt crystals dissolved at a rate of 0.03 mmole sec^−1 cm^−2 (see FIG. 1). In preferred embodiments, the salt of the invention the salt has a dissolution rate into aqueous solution of about 0.40 mmole sec^−1 cm^−2 or less. In more preferred embodiments, the salt of the invention the salt has a dissolution rate into aqueous solution of about 0.20 mmole sec^−1 cm^−2 or less. In more preferred embodiments, the salt of the invention the salt has a dissolution rate into aqueous solution of about 0.05 mmole sec^−1 cm^−2 or less.
Dissolution rates of sumanirole from xinafoate and maleate crystalline salts were determined using a rotating disk apparatus. In this apparatus, a die containing a pellet comprising a substance of interest is attached to an arm connected to a small motor. The die is submerged in about 500 ml of a dissolution medium at 25° C., and rotated at 300 rpm. The concentration of a compound released into solution is measured in a series of time points using an in situ UV/vis absorbance dip probe linked to a digital computer. For testing the dissolution rates of sumanirole xinafoate and sumanirole maleate crystalline salts, 20 mg of the xinafoate crystalline salt and 20 mg of the maleate crystalline salt were each pressed into pellets of uniform shape at 1000 pounds (3700 psi) for 1 minute. Each pellet was then subjected to dissolution in a rotating disc dissolution apparatus. Measurements of the amount of sumanirole dissolved into the medium, recorded as milligrams of free base equivalent of sumanirole, were plotted against time (FIG. 1). The slope of each curve, normalized to the initial exposed surface area of each disk, was used to calculate a Rotating Disk Dissolution Rate (RDDR) for each salt.

Rotating Disk Dissolution Rate (RDDR) [mmole sec^−1 cm^−2]	Rotating Disk Dissolution Rate (RDDR) (listed as maleate salt) [mmole sec^−1 cm^−2]	Rotating Disk Dissolution Rate (RDDR) (listed as xinafoate salt) [mmole sec^−1 cm^−2]	dissolution rate relative to the rate of the sumanirole maleate crystalline salt (rotating disk dissolution, 25° C.)	Compound
0.44	0.44	–	–	CN[C@@H]1Cc2cccc3[nH]c(=O)n(c23)C1 [sumanirole maleate, (R)-5,6-dihydro-5-(methylamino)-4H-imidazo[4,5,1-ij]quinolin-2(1H)-one, reference compound]
0.030	–	0.03	less than 10%	CN[C@@H]1Cc2cccc3[nH]c(=O)n(c23)C1 [sumanirole xinafoate, (R)-5,6-dihydro-5-(methylamino)-4H-imidazo[4,5,1-ij]quinolin-2(1H)-one]

From patent US20040138200A1, “Pharmaceutical compositions for treatment of Parkinson's disease” (priority 2002, published 2004)
